According to patent US20240402196A1 (Exact Sciences Corporation, priority 2018, published 2024):
Entries after “also recorded” stand apart in the source; their conditions may differ. One block for each molecule: values may come before it.

Assays:
[1] = target: T1, hemoglobin in stool samples (Homo sapiens, UniProt P68871+P69905); assay: 7-Day shipping simulation, hemoglobin % recovery by ELISA; design: from tissue; host or cells: stool samples
Experimental: (§1) To assess the stability of hemoglobin in stool samples, samples were exposed to simulated shipping stress conditions using a thermal cycler. […] An ELISA based detection method is used to determine the hemoglobin concentrations of samples before and after exposure to the shipping simulation. Hemoglobin stability is calculated as a % recovery of hemoglobin after the samples have been exposed to the shipping simulation.
To assess the stability of hemoglobin in stool samples beyond 3 days, a 7-Day shipping simulation was created.

hemoglobin (Hb) = target: T2, hemoglobin (Hb) (Homo sapiens, UniProt P68871+P69905); assay: Appendix B: additives in Hb Collection Buffer, % Hb Recovery
T2 construct: To assess the stability of hemoglobin in stool samples, samples were exposed to simulated shipping stress conditions; from tissue; host or cells: stool samples
T2 sequence (P69905 2-142 limits assumed): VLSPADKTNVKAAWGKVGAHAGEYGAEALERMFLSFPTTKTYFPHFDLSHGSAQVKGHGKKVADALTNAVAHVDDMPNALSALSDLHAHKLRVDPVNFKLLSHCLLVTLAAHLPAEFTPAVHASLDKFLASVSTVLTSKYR
T2 sequence (P68871 2-147 limits assumed): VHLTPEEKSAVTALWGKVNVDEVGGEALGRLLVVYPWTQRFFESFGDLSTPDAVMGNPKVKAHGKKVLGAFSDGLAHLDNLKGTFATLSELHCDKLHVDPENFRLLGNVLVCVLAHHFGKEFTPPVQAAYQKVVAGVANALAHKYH

[2] = target: T1, hemoglobin in stool samples; assay: Accelerated shipping simulation (35C 16 hour challenge), hemoglobin % recovery by ELISA; design: from tissue; host or cells: stool samples;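 also: stool hemoglobin measured by ELISA before and after thermal-cycler shipping stress, stability given as percent of pre-stress hemoglobin recovered afterwards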
[3] = target: T1, hemoglobin in stool samples; assay: 3-Day shipping simulation, hemoglobin % recovery by ELISA; design: from tissue; host or cells: stool samples;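 also: stool samples put through shipping stress in a thermal cycler, hemoglobin quantified by ELISA before and after, stability given as post-stress % of the pre-stress level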
[4] = target: T1, hemoglobin in stool samples; assay: 3-Day extreme temperature shipping simulation, hemoglobin % recovery by ELISA; design: from tissue; host or cells: stool samples
Experimental: as §1
As an additional challenge, a shipping simulation meant to represent a “worst case” scenario was created using extreme temperatures.

hemoglobin = target: T3, hemoglobin (Homo sapiens, UniProt P68871+P69905); assay: Appendix B additive screen in Hb Collection Buffer, % Hb Recovery
T3 construct: To assess the stability of hemoglobin in stool samples, samples were exposed to simulated shipping stress conditions; from tissue; host or cells: stool samples
T3 sequence (P69905 2-142 limits assumed): as the sequence (P69905 2-142 limits assumed) above
T3 sequence (P68871 2-147 limits assumed): as the sequence (P68871 2-147 limits assumed) above

Hb = target: T4, Hb (Homo sapiens, UniProt P68871+P69905); assay: Appendix B additive screen, % Hb Recovery
T4 construct: To assess the stability of hemoglobin in stool samples, samples were exposed to simulated shipping stress conditions; from tissue; host or cells: stool samples
T4 sequence (P69905 2-142 limits assumed): as the sequence (P69905 2-142 limits assumed) above
T4 sequence (P68871 2-147 limits assumed): as the sequence (P68871 2-147 limits assumed) above

[5] = target: T1, hemoglobin in stool samples; assay: Accelerated shipping simulation (35C 16 hour challenge), hemoglobin % recovery by ELISA; design: To assess the stability of hemoglobin in stool samples, samples were exposed to simulated shipping stress conditions; from tissue; host or cells: stool samples;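 also: stool hemoglobin measured by ELISA before and after thermal-cycler shipping stress, stability given as percent of pre-stress hemoglobin recovered afterwards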
[6] = target: T1, hemoglobin in stool samples; assay: 7-Day modified shipping simulation, hemoglobin % recovery by ELISA; design: from tissue; host or cells: stool samples
[7] = concentrations and buffer pH 6.5 or 7.4 as in the 14th table
[8] = concentrations and buffer pH 6.5 or 7.4 as in the 13th table
[9] = concentrations and buffer pH 6.5 or 7.4 as in the 15th table
[10] = additive concentrations as in the 9th table
[11] = additive concentrations as in the 8th table
[12] = additive concentrations as in the 10th table

T1 sequence (P69905 2-142 limits assumed): as the sequence (P69905 2-142 limits assumed) above
T1 sequence (P68871 2-147 limits assumed): as the sequence (P68871 2-147 limits assumed) above

SMILES: O=NO [Sodium Nitrite]
Results (hemoglobin): No Improvement

SMILES: O=C(O)c1cccnc1 [Vitamin B3]
Results (hemoglobin): No Improvement

SMILES: [Ca+2].[Cl-].[Cl-] [Calcium Chloride]
Notes (Hb stability vs Hb Collection Buffer) [1, 10]: Improved Hb | Results (Hb): Calcium cation shows | Results (hemoglobin (Hb); Additive Concentration 10 mM): No improvement; also recorded: Improvement in % Hb | Results [2]: Calcium cation shows; also recorded: Improvement | Results ([3]; Additive Concentration 10 mM): Calcium cation shows | Results ([3]; additive concentration 5 mM): Calcium cation shows | Results ([3]; additive concentration 10 mM): Calcium cation shows | Results ([3]; additive concentration 20 mM): Calcium cation shows | Results ([3]; additive concentration 30 mM): Calcium cation shows | Results ([3]; additive concentration 40 mM): Calcium cation shows | Results ([3]; additive concentration 50 mM): Calcium cation shows | Notes (Hb stability vs Hb Collection Buffer) [3, 11]: Improved Hb | Notes (Hb stability vs Hb Collection Buffer) [4, 12]: Improved Hb

SMILES: O=C(O)[C@@H](CO)O[C@@H]1O[C@H](CO)[C@@H](O)[C@H](O)[C@@H]1O
Results ([5]; additive concentration 0.377 mM): No Improvement | Results ([5]; additive concentration 1 mM): No Improvement

SMILES: O=S(=O)([O-])[O-].[Mg+2] [Magnesium Sulfate]
Notes (Hb stability vs Hb Collection Buffer) [1, 10]: Improved Hb | Results (hemoglobin (Hb); Additive Concentration 10 mM): Improvement in % Hb | Results ([2]; additive concentration 10 mM): Improvement | Results ([3]; Additive Concentration 10 mM): Magnesium Cation shows | Results ([3]; additive concentration 0.001M): Magnesium Cation shows | Results ([3]; additive concentration 5 mM): Magnesium Cation shows | Results ([3]; additive concentration 0.01M): Magnesium Cation shows | Results ([3]; additive concentration 10 mM): Magnesium Cation shows | Results ([3]; additive concentration 20 mM): Magnesium Cation shows | Results ([3]; additive concentration 30 mM): Magnesium Cation shows | Results ([3]; additive concentration 40 mM): Magnesium Cation shows | Results ([3]; additive concentration 0.05M): Magnesium Cation shows | Results ([3]; additive concentration 50 mM): Magnesium Cation shows | Notes (Hb stability vs Hb Collection Buffer) [3, 11]: Improved Hb | Notes (Hb stability vs Hb Collection Buffer) [4, 12]: Improved Hb

Second part, led by results:

Notes (Hb stability vs Hb Collection Buffer) [1, 7]: Improved | Results (hemoglobin (Hb); Additive Concentration 0.001 uM): No Improvement | Results (hemoglobin (Hb); Additive Concentration 0.01 uM): Improvement in % Hb | Results (hemoglobin (Hb); Additive Concentration 0.1 uM): Improvement in % Hb | Results (hemoglobin (Hb); Additive Concentration 1 uM): Improvement in % Hb | Results (hemoglobin (Hb); additive concentration 10 uM): Improvement in % Hb | Results (hemoglobin (Hb); additive concentration 100 uM): Improvement in % Hb | Results ([2]; additive concentration 1 uM, pH 6.5): Improvement | Results ([2]; additive concentration 1 uM, pH 7.4): Improvement | Notes (Hb stability vs Hb Collection Buffer) [3, 8]: Improved | Notes (Hb stability vs Hb Collection Buffer) [4, 9]: Improved
SMILES: C=CC1=C(C)c2cc3[n-]c(cc4nc(cc5[n-]c(cc1n2)c(C)c5C=C)C(C)=C4CCC(=O)O)c(CCC(=O)O)c3C.[Zn+2] [Protoporphyrin IX Zn, Protoporphyrin IX Zinc]

Notes (Hb stability vs Hb Collection Buffer) [1, 7]: Improved | Results (hemoglobin (Hb); Additive Concentration 0.1 uM): No Improvement | Results (hemoglobin (Hb); additive concentration 5 uM): Improvement in % Hb | Results (hemoglobin (Hb); additive concentration 10 uM): Improvement in % Hb | Notes (Hb stability vs Hb Collection Buffer) ([2]; 35C 16 hour challenge, concentrations and pH as in the 19th table): Improved Hb | Hb stability (in words) ([2]; 35C 16 hour challenge, concentrations of 2.5-10 μM, adjusted pH range of 6.2-7.4): increased Hb stability | Results ([2]; additive concentration 5 uM): Improvement in % Hb | Results ([2]; additive concentration 5 uM, pH 6.5): Improvement | Results ([2]; additive concentration 5 uM, pH 7.4): Improvement | Notes (Hb stability vs Hb Collection Buffer) ([3]; 3-Day and 7-Day Shipping Simulation, concentrations and pH as in the 18th table): Improved Hb | Hb stability (in words) ([3]; 3 and 7 day Shipping Simulations, concentrations of 2.5-10 µM, adjusted pH of 6.8): increased Hb stability | Notes (Hb stability vs Hb Collection Buffer) [3, 8]: Improved | Notes (Hb stability vs Hb Collection Buffer) ([6]; 3-6 μM, buffer pH 6.4-7.0 as in the 17th table): Improved Hb | Hb stability (in words) ([6]; concentrations of 3-6 μM, adjusted pH range of 6.4-7.0): increased Hb stability | Notes (Hb stability vs Hb Collection Buffer) [4, 9]: Improved
SMILES: C=Cc1c(C)c2cc3[nH]c(cc4nc(cc5nc(cc1[nH]2)C(C)=C5CCC(=O)[O-])C(CCC(=O)[O-])=C4C)c(C)c3C=C.[Co+2] [Protoporphyrin IX Co, Protoporphyrin IX Cobalt]
Hb stability compared to the Polymedco buffer (in words) ([4]; additive in Hb Collection Buffer): improved Hb stability compared to the Polymedco buffer

Notes (Hb stability vs Hb Collection Buffer) [1, 10]: Improved Hb | Results (Hb): Betaine shows improvement | Results ([2]; additive concentration 50 uM): No Improvement | Results ([2]; additive concentration 500 uM): No Improvement | Results ([2]; additive concentration 50 mM): No Improvement | Results ([2]; additive concentration 96 mM): No Improvement | Results ([2]; additive concentration 3.5M): Improvement | Results ([3]; Additive Concentration 1M): Betaine shows improvement | Results ([3]; additive concentration 0.05M): Betaine shows improvement | Results ([3]; additive concentration 0.5M): Betaine shows improvement | Results ([3]; additive concentration 1.25M): Betaine shows improvement | Results ([3]; additive concentration 3M): Betaine shows improvement | Results ([3]; additive concentration 3.5M): Betaine shows improvement | Results ([3]; additive concentration 3.75M): Betaine shows improvement | Results ([3]; additive concentration 4M): Betaine shows improvement | Results ([3]; additive concentration 5M): Betaine shows improvement | Results ([3]; additive concentration […]): Betaine shows improvement | Notes (Hb stability vs Hb Collection Buffer) [3, 11]: Improved Hb | Notes (Hb stability vs Hb Collection Buffer) [4, 12]: Improved Hb
SMILES: C[N+](C)(C)CC(=O)O [Betaine]
